This passage reports melting point results from a melting point compilation (Tetko et al.; mined from patent text by program, amines drawn as free bases though some values may be those of a salt).

Molecules are shown by their SMILES.

In general, melting point refers to the temperature, or range, at which the solid turns liquid. On to `CCc1cc2c(O)c(C(=O)OCC(C)C)cnc2s1`, for which the melting point lay in the range of 156 to 158 °C.

Compound `CCNC(=O)CC(Cc1cccc2ccccc12)C(=O)NC(Cc1c[nH]cn1)C(=O)NC(CC(C)C)C(O)C(=O)OC` (mixture of isomers) registered a melting point of 103 to 108 °C.

Compound `COc1ccc(-c2cccc3nc(Nc4cc(OC)c(OC)c(OC)c4)oc23)cn1` gave a melting point of 192 to 193 °C.

As to `CC(=NNC(=O)c1ccc([N+](=O)[O-])cc1)c1ccncc1`, the melting point came out at 251 °C.

On to `CC(C)(C)C(=O)c1ccc(COc2ccccc2)cc1`, for which the melting point was in the range of 79.5 to 80 °C.

As to `CCN(CC)CCOc1ccc(C(O)(CC)c2cccc(C(F)(F)F)c2)cc1` (stereo unspecified), the melting point is 74 to 75 °C.

On to `COC(=O)c1ccc(/C=C/C(=O)NOC2CCCCO2)cc1` (stereo unspecified), for which the melting point amounted to 133 °C.

As for `Cc1ccnc(N2CCN(CCCCC3Sc4ccccc4NC3=O)CC2)c1` (stereo unspecified), the melting point came out at 119 °C.

Compound `CC(C)(C)c1nnc(N=C2SC[C@@H]3Cc4ccccc4CN23)s1` registered a melting point of 137 °C.

`COc1ccc2c(c1)c(CC(=O)O)c(C)n2C(=O)c1c(Cl)cc(Cl)cc1Cl` yielded a melting point of 193 to 196 °C.

For `Cc1nc(COc2ccc(Cl)cc2)sc1C(=O)N[C@H](C)[C@](O)(Cn1cncn1)c1ccc(F)cc1F`, the melting point fell in the range of 134 to 135 °C.

Regarding `CNc1nc(-c2ccc(F)cc2)c(-c2ccc(S(C)(=O)=O)cc2)s1`, the melting point was in the range of 243 to 244 °C.

`CC(C)NC(=O)CN1CCN(CCc2ccc(-c3cccc(N)n3)cc2)CC1` yielded a melting point of 163 to 165 °C.

Regarding `CCCc1c(OCc2cccn3c(=O)c(C(=O)O)cnc23)ccc(C(C)=O)c1O`, the melting point was 170 to 172 °C.

On to `CCCn1cnc2c1c(=O)n(CCCCC(C)=O)c(=O)n2CC`, for which the melting point is 81 to 82 °C.

As to `Cc1ccc(O)c(NC(=O)c2cc(C)sc2Br)c1`, the melting point is 173 to 175 °C.

In turn, `COc1ccc2[nH]cc(C3=C(c4c[nH]c5ccccc45)C(=O)NC3=O)c2c1` yielded a melting point of 280 °C.

With `CCN(CC)CCNc1nc(N)nc(-c2cc(Cl)ccc2Cl)n1`, the melting point is 141 to 142 °C.

As to `CC(C)C(=O)OCC(COC(=O)C(C)C)OCn1cnc2c(=O)[nH]c(N)nc21`, the melting point was in the range of 193 to 198 °C.

`O=C(CCO)Cc1cccc(OCc2ccc3ccccc3n2)c1` registered a melting point of 116 to 119 °C.

Turning to `CCOC1=NS(=O)(=O)C(C(=O)OCc2ccccc2)=C1N`, the melting point fell in the range of 144 to 147 °C.

On to `COc1ccc(CN2C(=O)C(O)(c3cc(CN(C)C)ccc3OC)c3cc(Cl)ccc32)c(OC)c1` (stereo unspecified), for which the melting point came to 189 °C.

Consider `CC(C)(C)OC(=O)c1nc(-c2ccccc2)[nH]c1-c1ccccn1`, for which the melting point was 211 to 213 °C.

For the compound `O=c1[nH]ncc2c1c(O)nc1cc(Cl)ccc12`, the melting point was more than 350 °C.

As to `O=C(O)c1c2ccccc2nc2ccc3ccccc3c12`, the melting point is 169 to 170 °C.

Turning to `CCCc1nc(C)n2ncnc2c1Cc1ccc(-c2ccccc2C#N)cc1`, the melting point was found to be 112 °C.

For `CC(=O)c1ccc(Cn2ccc3c4c(N)nc(N)nc4ccc32)cc1`, the melting point was 224 to 225 °C.

The compound `COC(=O)C1=C(C)NC(C)=C(S(C)(=O)=O)C1c1ccccc1C(F)(F)F` (stereo unspecified) yielded a melting point of 160 to 163 °C.

On to `COC(=O)c1ccc2c(c1)CCN2Cc1cccc([N+](=O)[O-])c1`, for which the melting point lay within 99 to 100 °C.

In turn, `COc1ccc(COc2cccnc2NC(=S)Nc2ccccc2)cc1` had a melting point of 123 to 125 °C.

`Cc1cccc2c1nc1n2CC(c2ccccn2)S1` (stereo unspecified) showed a melting point of 96 °C.

The compound `O=C(O)CCc1cn(Cc2ccc(OCc3ccccc3)cc2)cc1-c1ccccc1` gave a melting point of 130 to 131 °C.

Regarding `CCN(CC)CCCn1ccc2cc(Nc3ncnc4cc(-c5ccccc5)sc34)ccc21`, the melting point was 178 to 180 °C.

The compound `CCn1cc(C(=O)O)c(=O)c2cc(F)c(N3CCC(NS(=O)(=O)c4ccc(N)cc4)C3)c(F)c21` (stereo unspecified) returned a melting point of 214 to 216 °C.

`COc1ccc(C(C)(C)C)cc1C(=O)c1ccc([N+](=O)[O-])cc1Cl`: the melting point fell in the range of 82.5 to 83.5 °C.

With `COc1ccc(C2NCc3c2[nH]c2ccccc2c3=O)cc1OC` (stereo unspecified), the melting point fell in the range of 223 to 225 °C.

Turning to `Oc1cccc(-c2cnc3cnc(-c4cccc(O)c4)nc3c2)c1`, the melting point is 264 to 265 °C.

On to `COc1ccc(C(=O)Nc2nc3ccc(N)cc3c(NCc3ccccc3)c2C#N)cc1`, for which the melting point was in the range of 228 to 230 °C.

Compound `COC(=O)c1cccc(CSc2c(O)cc(-c3ccccc3)oc2=O)c1` returned a melting point of 170 to 171 °C.

`C=C1CCC2C3CCc4cc(O)ccc4C3CCC12C` (stereo unspecified) showed a melting point of 134 to 136 °C.

Compound `CCCCNCCCCCCCCSc1nc(-c2ccccc2)c(-c2ccccc2)[nH]1` showed a melting point of 75 to 78 °C.

With `Cc1cc(=O)oc2nn(Cc3cccc(Cl)c3)c(C)c12`, the melting point was in the range of 148 to 149 °C.

`Cc1cc(-c2cc(C(F)(F)F)n3ncc(C#N)c3n2)ccc1Cl`: the melting point stood at 216 °C.

As to `COc1cc(-c2cc(=O)c3ccc(OCC4CO4)cc3o2)cc(OC)c1OC` (stereo unspecified), the melting point is 187 to 188 °C.

`CCOC(=O)Cc1cnc(Nc2n[nH]c3ccc(-c4ncccc4Cl)cc23)s1`: the melting point fell in the range of 259 to 261 °C.

The compound `Cc1nnnn1/C=C\SC(c1ccccc1)(c1ccccc1)c1ccccc1` gave a melting point of 208 to 210 °C.

`CC[C@@H](c1ccccc1)N(Cc1ccc(CN)cc1)S(=O)(=O)c1ccc(Cl)cc1` showed a melting point of 108 to 110 °C.

Take `CCCCCCCCCCCCOc1ccc(C=C(C(=O)OCC(O)CO)C(=O)OCC(O)CO)cc1` (stereo unspecified): the melting point was 80 to 85 °C.

`O=C(O)C(CCCN1C(=O)c2ccccc2C1=O)NS(=O)(=O)c1ccc(-c2ccc(Cl)cc2)cc1` (stereo unspecified) yielded a melting point of 179 to 181 °C.

As to `COc1ccc(-n2cnc3ccc(-c4nnc(SCc5cccc(C(F)(F)F)c5)o4)cc32)cc1`, the melting point lay within 174 to 175 °C.

For the compound `O=C(O)c1ccc(COCc2csc3nc(C(=O)O)[nH]c(=O)c23)cc1`, the melting point was 248 °C.

Compound `C[C@@H]1C(=O)C[C@H]2C[C@@H]1OO[C@@]2(C)/C=C/c1c(F)c(F)c(F)c(F)c1F` had a melting point of 128 °C.

Compound `COc1ccc(C(=O)CCC(C(=O)c2ccc(OCc3ccccc3)cc2)c2ccc(OC)cc2)cc1` (stereo unspecified) gave a melting point of 132 to 134 °C.

On to `O=C(NCC(F)(F)F)c1ccccc1C(c1ccc(O)cc1)c1ccc(O)cc1`, for which the melting point was 165 to 166 °C.

Consider `O=C1Nc2ccccc2C12COc1cc3c(cc12)CCCO3` (stereo unspecified), for which the melting point lay in the range of 216 to 220 °C.

In turn, `CCOC(=O)c1c(O)c2ccccc2n(C)c1=O` registered a melting point of 67 °C.

Compound `CC(C)(C)c1ccc(/C=N/OCCCOc2ccc(C(=O)O)c(NC(=O)c3ccc4ccccc4c3)c2)cc1` returned a melting point of 156 to 158 °C.

Regarding `COc1ccc2c(c1)C(C(=O)N(Cc1ccc(S(C)(=O)=O)cc1)c1ccc(C(C)C)cc1)CCC2` (stereo unspecified), the melting point fell in the range of 131 to 132 °C.

`Cc1cccc(C(=O)c2[nH]c3cc(Cl)ccc3c2N)n1` came in with a melting point of 210 to 211 °C.

`Cc1nn(C)c(C)c1-c1cccc(OC2SCC(O)C(O)C2O)c1` (stereo unspecified) showed a melting point of 95 °C.

For `C=C(C)COc1cc(C)c(NC=O)c(C)c1`, the melting point was 128 to 129 °C.
